Data as given in US20030203969A1, “Pharmaceutically active aromatic guanylhydrazones” (priority 2000, published 2003).

Experiments:
[1] = molecular target: T1, deoxyhypusine synthase (DHS) (Homo sapiens, UniProt P49366); assay: In vitro DHS screening assay (hypusine formation on eIF-5A); type: biochemical
T1 construct: made in house; host or cells: E. coli BL21 (DE3), pGex vector
T1 sequence (P49366 1-369): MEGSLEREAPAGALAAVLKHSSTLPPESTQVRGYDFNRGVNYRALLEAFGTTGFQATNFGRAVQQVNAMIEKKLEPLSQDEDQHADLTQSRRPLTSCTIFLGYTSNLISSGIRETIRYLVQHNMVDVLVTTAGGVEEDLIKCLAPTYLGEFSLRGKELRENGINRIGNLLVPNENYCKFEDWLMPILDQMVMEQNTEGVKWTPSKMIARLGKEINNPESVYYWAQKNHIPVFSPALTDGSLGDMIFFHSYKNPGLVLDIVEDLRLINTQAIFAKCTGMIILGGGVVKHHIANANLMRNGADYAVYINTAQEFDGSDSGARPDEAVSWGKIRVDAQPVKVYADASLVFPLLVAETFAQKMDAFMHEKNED

HHV8 = assay: HHV-8 replication in TPA-induced BCBL-1 cells (TaqMan PCR); type: cell-based, Human herpesvirus 8
Method: The human BCBL-1 cell line is available through the AIDS Reference and Reagent Program (Cat.No. 3233). This cell line was derived from a body cavity-based lymphoma latently infected with HHV-8. Culturing these cells in the presence of phorbol ester induces a lytic infection cycle, resulting in the release of viral particles into the medium. Compound efficacy in this proposed assay is determined using TaqMan PCR technology, and compound toxicity is measured by addition of Promega's Cell Titer Aqueous One Solution (metabolic dye).
7. BCBL-1 cells will be counted by the trypan blue dye exclusion method, and the cell count/ml will be determined. Cells will be pelleted by centrifugation and washed once with PBS to minimize the basal level of virus released from untreated cells which spontaneously enter the lytic cycle and release virus.
8. Cells will be resuspended in fresh media and adjusted to the appropriate cell density. Cells will then be plated in the interior wells of 96-well round-bottom microtiter plates in a volume of 50 μl per well.
9. […]
11. A standard curve prepared from known copy numbers of DNA isolated from BCBL-1 cells and amplified will be run with each plate in order to quantitate the DNA copy number in each original sample. The efficacy of the compound will be determined by comparing DNA copy numbers from test wells with those of control wells.

[2] = tested on: NRTI + PI-resistant HIV-1; assay: Inhibition of multiple anti-retroviral drug resistant HIV-1 strains: NRTI + PI-resistant; type: cell-based
Method: In addition, various different “types” of multiple anti-retroviral drug resistant HIV-1 strains were also tested: […]

Vero cells = assay: Cytotoxicity in uninfected Vero cells (HSV-1 experiments, MTS); type: cell-based, African green monkey; conditions: inhibits cell growth by 50%, read-out: TC50 (the source's name)
Source text: A virus-induced cytopathic effects (CPE)-inhibition assay procedure using Promega's Cell Titer Aqueous One Solution (MTS, metabolic dye) is employed to evaluate compounds for antiviral activity against herpes simplex virus type 1 (strain HF) in Vero cells (African green monkey cells, ATCC Cat. No. CCL-81). Vero cells are pregrown in 96-well tissue culture plates using Dulbecco's Modified Eagle's Medium (DMEM) supplemented with 10% heat-inactivated fetal bovine serum (FBS), L-glutamine, penicillin, and streptomycin. To each of the replicate cell cultures is added 50 μl of the test drug solution and 50 μl of virus suspension. Cell controls containing medium alone, virus-infected controls containing medium and virus, drug cytotoxicity controls containing medium and each drug concentration, reagent controls containing culture medium only (no cells), and drug calorimetric controls containing drug and medium (no cells) are run simultaneously with the test samples. The plates are incubated at 37° C. in a humidified atmosphere containing 5% CO2 until maximum CPE is observed in the untreated virus control cultures (Day 5). CPE inhibition is determined by a dye (MTS) uptake procedure. […] The purple color of the MTS formazan is then measured spectrophotometrically at 490/650 nm. […]

CC(=NNC(=N)N)c1cc(NC(=O)CCCCCCCCC(=O)Nc2cc(C(C)=NNC(=N)N)cc(C(C)=NNC(=N)N)c2)cc(C(C)=NNC(=N)N)c1 [Compound 4, N,N′-bis (3,5-diacetylphenyl) decane diamide tetrakis (amidinohydrazone)]
inhibition of the hypusine formation on the elF-5A protein [1]: potent inhibitors | Comments (HHV8; HHV8, BCBL-1 cells): Active | IC50 (HHV8; chronically HHV8-infected BCBL-1 cells): 2.3 µM | [%] inhibition of virus replication ([2]; NRTI + PI-resistant HIV-1, 0.5 μM): 68% | [%] inhibition of virus replication ([2]; NRTI + PI-resistant HIV-1, 1.0 μM): 73% | CC50 (Vero cells): 20.6 µM
